The record followed here is patent US12534583B2, “Compositions and polymer films” (Fujifilm Manufacturing Europe B.V., priority 2020, dated 2026).

Structures can show the parent of a compound that is named as a salt.

The data set in a line: Solubility in water determined visually or by UV-spectrometry. As to conditions: 40° C. overnight, M = Li.
Method: The solubility of the compounds of Formula (I) was determined visually or by UV-spectrometry. For each compound of Formula (I), three solutions were prepared: one solution at 30 wt %, one solution at 60 wt %, and one solution at 70 wt % containing a 1:1 molar ratio of the compound of Formula (I) with cross-linker Li-BVBSI. 500 ppm 40H-TEMPO was included in all three solutions to prevent premature polymerisation. The solutions were kept in a water bath of 40° C. overnight and centrifuged prior inspection. UV spectra were recorded in a Cary™ 100 UV-visible spectrophotometer from Agilent Technologies using a 1 mm path length quartz cuvette.
With `C=Cc1ccc(S(=O)(=O)[O-])cc1.[Li+]` [LiSS, Styrene sulphonate, lithium salt, reference compound], the “Solubility in water at 40° C.” value is 40 wt %.

Take `C=Cc1ccc(S(=O)(=O)NS(N)(=O)=O)cc1` [MM-A, Benzenesulphonamide, 4-ethenyl-N-(aminosulphonyl)-, lithium salt]: the “Solubility in water at 40° C.” value is on record as greater than 60 wt %.

As for `C=Cc1ccc(S(=O)(=O)NS(C)(=O)=O)cc1` [MM-M, Benzenesulphonamide, 4-ethenyl-N-(methylsulphonyl)-, lithium salt], the “Solubility in water at 40° C.” value is on record as greater than 60 wt %. With `C=Cc1ccc(S(=O)(=O)NS(=O)(=O)c2ccccc2)cc1` [MM-P, Benzenesulphonamide, 4-ethenyl-N-(phenylsulphonyl)-, lithium salt] the figure was greater than 60 wt %. For `C=Cc1ccc(S(=O)(=O)NS(=O)(=O)C(F)(F)F)cc1` [MM-Tf, Benzenesulphonamide, 4-ethenyl-N-[(trifluoromethyl)sulphonyl]-, lithium salt, reference compound], the “Solubility in water at 40° C.” value was greater than 60 wt %.
